This is an account of results in US8580794B2 (AbbVie Inc., priority 2009, dated 2013).

The assay deals with GST-Bc1-2 (Homo sapiens, UniProt P10415). In words: Time Resolved-Fluorescence Resonance Energy Transfer (TR-FRET) Bcl-2 binding assay with F-Bak peptide probe. The note with it: GST-Bcl-2 1 nM, F-Bak probe 100 nM, Tb-anti-GST 1 nM; '<' = below limit of detection; read-out: TR-FRET Bcl-2 Binding Ki.

SMILES strings stand for the structures. pKi: −log10 of the molar value.

Sequence of GST-Bc1-2 (P10415 whole entry): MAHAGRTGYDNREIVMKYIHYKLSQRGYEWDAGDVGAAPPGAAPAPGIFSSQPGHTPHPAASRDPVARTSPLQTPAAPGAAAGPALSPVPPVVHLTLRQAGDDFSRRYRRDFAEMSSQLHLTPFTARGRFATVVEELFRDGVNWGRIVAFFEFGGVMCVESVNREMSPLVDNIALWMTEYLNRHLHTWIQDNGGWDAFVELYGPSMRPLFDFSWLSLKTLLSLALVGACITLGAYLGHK

On to `CC1(C)CCC(CN2CCN(c3ccc(C(=O)NS(=O)(=O)c4ccc(NCc5cccc(OC(F)(F)F)c5)c([N+](=O)[O-])c4)c(Oc4cnc5[nH]ccc5c4)c3)CC2)=C(c2ccc(Cl)cc2)C1` [Example 175, 4-(4-{[2-(4-chlorophenyl)-4,4-dimethylcyclohex-1-en-1-yl]methyl}piperazin-1-yl)-N-[(3-nitro-4-{[3-(trifluoromethoxy)benzyl]amino}phenyl)sulfonyl]-2-(1H-pyrrolo[2,3-b]pyridin-5-yloxy)benzamide], for which the negative logarithm of the Ki (pKi) (in general, the Ki on a negative log10 scale, so that one unit is a factor of ten) is 9.92.
For `COc1cccc(CNc2ccc(S(=O)(=O)NC(=O)c3ccc(N4CCN(CC5=C(c6ccc(Cl)cc6)CC(C)(C)CC5)CC4)cc3Oc3cnc4[nH]ccc4c3)cc2[N+](=O)[O-])c1` [Example 176, 4-(4-{[2-(4-chlorophenyl)-4,4-dimethylcyclohex-1-en-1-yl]methyl}piperazin-1-yl)-N-({4-[(3-methoxybenzyl)amino]-3-nitrophenyl}sulfonyl)-2-(1H-pyrrolo[2,3-b]pyridin-5-yloxy)benzamide] the value was 10.64.
Under `CC1(C)CCC(CN2CCN(c3ccc(C(=O)NS(=O)(=O)c4ccc(NCc5ccc(OC(F)F)cc5)c([N+](=O)[O-])c4)c(Oc4cnc5[nH]ccc5c4)c3)CC2)=C(c2ccc(Cl)cc2)C1` [Example 177, 4-(4-{[2-(4-chlorophenyl)-4,4-dimethylcyclohex-1-en-1-yl]methyl}piperazin-1-yl)-N-[(4-{[4-(difluoromethoxy)benzyl]amino}-3-nitrophenyl)sulfonyl]-2-(1H-pyrrolo[2,3-b]pyridin-5-yloxy)benzamide] stands 9.95; under `CC1(C)CCC(CN2CCN(c3ccc(C(=O)NS(=O)(=O)c4ccc(NC5CCC6(CC5)OCCO6)c([N+](=O)[O-])c4)c(Oc4cnc5[nH]ccc5c4)c3)CC2)=C(c2ccc(Cl)cc2)C1` [Example 178, 4-(4-{[2-(4-chlorophenyl)-4,4-dimethylcyclohex-1-en-1-yl]methyl}piperazin-1-yl)-N-{[4-(1,4-dioxaspiro[4.5]dec-8-ylamino)-3-nitrophenyl]sulfonyl}-2-(1H-pyrrolo[2,3-b]pyridin-5-yloxy)benzamide], 10.12; under `CC(=O)N[C@H]1CC[C@H](Nc2ccc(S(=O)(=O)NC(=O)c3ccc(N4CCN(CC5=C(c6ccc(Cl)cc6)CC(C)(C)CC5)CC4)cc3Oc3cnc4[nH]ccc4c3)cc2[N+](=O)[O-])CC1` [Example 179, Trans-N-[(4-{[4-(acetylamino)cyclohexyl]amino}-3-nitrophenyl)sulfonyl]-4-(4-{[2-(4-chlorophenyl)-4,4-dimethylcyclohex-1-en-1-yl]methyl}piperazin-1-yl)-2-(1H-pyrrolo[2,3-b]pyridin-5-yloxy)benzamide], above 11.00.
With `CC1(C)CCC(CN2CCN(c3ccc(C(=O)NS(=O)(=O)c4ccc(N[C@@H]5CCN(CC(F)F)C5)c([N+](=O)[O-])c4)c(Oc4cnc5[nH]ccc5c4)c3)CC2)=C(c2ccc(Cl)cc2)C1` [Example 180, 4-(4-{[2-(4-chlorophenyl)-4,4-dimethylcyclohex-1-en-1-yl]methyl}piperazin-1-yl)-N-[(4-{[(3R)-1-(2,2-difluoroethyl)pyrrolidin-3-yl]amino}-3-nitrophenyl)sulfonyl]-2-(1H-pyrrolo[2,3-b]pyridin-5-yloxy)benzamide], the pKi was above 11.00.
Under `CC1(C)CCC(CN2CCN(c3ccc(C(=O)NS(=O)(=O)c4ccc(N[C@H]5CCN(CCF)C5)c([N+](=O)[O-])c4)c(Oc4cnc5[nH]ccc5c4)c3)CC2)=C(c2ccc(Cl)cc2)C1` [Example 181, 4-(4-{[2-(4-chlorophenyl)-4,4-dimethylcyclohex-1-en-1-yl]methyl}piperazin-1-yl)-N-[(4-{[(3S)-1-(2-fluoroethyl)pyrrolidin-3-yl]amino}-3-nitrophenyl)sulfonyl]-2-(1H-pyrrolo[2,3-b]pyridin-5-yloxy)benzamide] stands 10.77; under `CC1(C)CCC(CN2CCN(c3ccc(C(=O)NS(=O)(=O)c4ccc(N[C@H]5CCN(CC(F)F)C5)c([N+](=O)[O-])c4)c(Oc4cnc5[nH]ccc5c4)c3)CC2)=C(c2ccc(Cl)cc2)C1` [Example 182, 4-(4-{[2-(4-chlorophenyl)-4,4-dimethylcyclohex-1-en-1-yl]methyl}piperazin-1-yl)-N-[(4-{[(3S)-1-(2,2-difluoroethyl)pyrrolidin-3-yl]amino}-3-nitrophenyl)sulfonyl]-2-(1H-pyrrolo[2,3-b]pyridin-5-yloxy)benzamide], 10.17; under `CC1(C)CCC(CN2CCN(c3ccc(C(=O)NS(=O)(=O)c4ccc(NCc5ccc(O)cc5)c([N+](=O)[O-])c4)c(Oc4cnc5[nH]ccc5c4)c3)CC2)=C(c2ccc(Cl)cc2)C1` [Example 185, 4-(4-{[2-(4-chlorophenyl)-4,4-dimethylcyclohex-1-en-1-yl]methyl}piperazin-1-yl)-N-({4-[(4-hydroxybenzyl)amino]-3-nitrophenyl}sulfonyl)-2-(1H-pyrrolo[2,3-b]pyridin-5-yloxy)benzamide], 10.66.
Under `CC1(C)CCC(CN2CCN(c3ccc(C(=O)NS(=O)(=O)c4ccc(NCc5cccc(O)c5)c([N+](=O)[O-])c4)c(Oc4cnc5[nH]ccc5c4)c3)CC2)=C(c2ccc(Cl)cc2)C1` [Example 186, 4-(4-{[2-(4-chlorophenyl)-4,4-dimethylcyclohex-1-en-1-yl]methyl}piperazin-1-yl)-N-({4-[(3-hydroxybenzyl)amino]-3-nitrophenyl}sulfonyl)-2-(1H-pyrrolo[2,3-b]pyridin-5-yloxy)benzamide] stands 10.33.
Under `CC1(C)CCC(CN2CCN(c3ccc(C(=O)NS(=O)(=O)c4ccc(NCc5cccc(OC(F)F)c5)c([N+](=O)[O-])c4)c(Oc4cnc5[nH]ccc5c4)c3)CC2)=C(c2ccc(Cl)cc2)C1` [Example 187, 4-(4-{[2-(4-chlorophenyl)-4,4-dimethylcyclohex-1-en-1-yl]methyl}piperazin-1-yl)-N-[(4-{[3-(difluoromethoxy)benzyl]amino}-3-nitrophenyl)sulfonyl]-2-(1H-pyrrolo[2,3-b]pyridin-5-yloxy)benzamide] stands 10.10; under `CC1(C)CCC(CN2CCN(c3ccc(C(=O)NS(=O)(=O)c4ccc(NC5CCN(C6CC6)CC5)c(S(=O)(=O)C(F)(F)F)c4)c(Oc4cnc5[nH]ccc5c4)c3)CC2)=C(c2ccc(Cl)cc2)C1` [Example 190, 4-(4-{[2-(4-chlorophenyl)-4,4-dimethylcyclohex-1-en-1-yl]methyl}piperazin-1-yl)-N-({4-[(1-cyclopropylpiperidin-4-yl)amino]-3-[(trifluoromethyl)sulfonyl]phenyl}sulfonyl)-2-(1H-pyrrolo[2,3-b]pyridin-5-yloxy)benzamide], 10.59.
On to `CC1(C)CCC(CN2CCN(c3ccc(C(=O)NS(=O)(=O)c4ccc(OCC5(F)CCN(C6CCOCC6)CC5)c([N+](=O)[O-])c4)c(Oc4cnc5[nH]ccc5c4)c3)CC2)=C(c2ccc(Cl)cc2)C1` [Example 192, 4-(4-{[2-(4-chlorophenyl)-4,4-dimethylcyclohex-1-en-1-yl]methyl}piperazin-1-yl)-N-({4-[(4-fluoro-1-tetrahydro-2H-pyran-4-ylpiperidin-4-yl)methoxy]-3-nitrophenyl}sulfonyl)-2-(1H-pyrrolo[2,3-b]pyridin-5-yloxy)benzamide], for which the pKi was above 11.00.
For `CC1(C)CCC(CN2CCN(c3ccc(C(=O)NS(=O)(=O)c4ccc(OCC5(F)CCN(C6CCOC6)CC5)c([N+](=O)[O-])c4)c(Oc4cnc5[nH]ccc5c4)c3)CC2)=C(c2ccc(Cl)cc2)C1` (stereo not drawn) [Example 193, 4-(4-{[2-(4-chlorophenyl)-4,4-dimethylcyclohex-1-en-1-yl]methyl}piperazin-1-yl)-N-({4-[(4-fluoro-1-tetrahydrofuran-3-ylpiperidin-4-yl)methoxy]-3-nitrophenyl}sulfonyl)-2-(1H-pyrrolo[2,3-b]pyridin-5-yloxy)benzamide] the value was above 11.00; for `CC1(C)CCC(CN2CCN(c3ccc(C(=O)NS(=O)(=O)c4ccc(OCC5(F)CCN(S(C)(=O)=O)CC5)c([N+](=O)[O-])c4)c(Oc4cnc5[nH]ccc5c4)c3)CC2)=C(c2ccc(Cl)cc2)C1` [Example 194, 4-(4-{[2-(4-chlorophenyl)-4,4-dimethylcyclohex-1-en-1-yl]methyl}piperazin-1-yl)-N-[(4-{[4-fluoro-1-(methylsulfonyl)piperidin-4-yl]methoxy}-3-nitrophenyl)sulfonyl]-2-(1H-pyrrolo[2,3-b]pyridin-5-yloxy)benzamide], above 11.00; for `CC1(C)CCC(CN2CCN(c3ccc(C(=O)NS(=O)(=O)c4ccc(NC[C@H]5CCN(C6COC6)C5)c([N+](=O)[O-])c4)c(Oc4cnc5[nH]ccc5c4)c3)CC2)=C(c2ccc(Cl)cc2)C1` [Example 195, 4-(4-{[2-(4-chlorophenyl)-4,4-dimethylcyclohex-1-en-1-yl]methyl}piperazin-1-yl)-N-{[3-nitro-4-({[(3R)-1-oxetan-3-ylpyrrolidin-3-yl]methyl}amino)phenyl]sulfonyl}-2-(1H-pyrrolo[2,3-b]pyridin-5-yloxy)benzamide], above 11.00.
For `CN(C)CCCOc1ccc(CNc2ccc(S(=O)(=O)NC(=O)c3ccc(N4CCN(CC5=C(c6ccc(Cl)cc6)CC(C)(C)CC5)CC4)cc3Oc3cnc4[nH]ccc4c3)cc2[N+](=O)[O-])cc1` [Example 197, 4-(4-{[2-(4-chlorophenyl)-4,4-dimethylcyclohex-1-en-1-yl]methyl}piperazin-1-yl)-N-{[4-({4-[3-(dimethylamino)propoxy]benzyl}amino)-3-nitrophenyl]sulfonyl}-2-(1H-pyrrolo[2,3-b]pyridin-5-yloxy)benzamide] the value was above 11.00.
Under `CC1(C)CCC(CN2CCN(c3ccc(C(=O)NS(=O)(=O)c4ccc(NCc5ccc(OCCN6CCOCC6)cc5)c([N+](=O)[O-])c4)c(Oc4cnc5[nH]ccc5c4)c3)CC2)=C(c2ccc(Cl)cc2)C1` [Example 198, 4-(4-{[2-(4-chlorophenyl)-4,4-dimethylcyclohex-1-en-1-yl]methyl}piperazin-1-yl)-N-[(4-{[4-(2-morpholin-4-ylethoxy)benzyl]amino}-3-nitrophenyl)sulfonyl]-2-(1H-pyrrolo[2,3-b]pyridin-5-yloxy)benzamide] stands above 11.00.
